The values that follow come from patent publication EP0015544A2, “Derivatives of the mercaptopropionamido-acetic acid, process for the preparation thereof and compositions” (ZAMBON S.p.A., priority 1979, dated 1980).

Molecules are shown by their SMILES.

One series is described as follows: in vivo. The conditions noted are these: ip, i.p. administration in the mouse, buffered with sodium bicarbonate at pH 6, read-out: DL50 (the source's name).
Series [1] deals with intrabronchial desquamation and the reactive mucousa iperplasye. Description: CCl nebulization in rats, bronchial desquamation and mucosal hyperplasia. Format: in vivo. The following applies: oral 0.5 g/kg/die (esters: equivalent to 0.5 g/kg/die of the acid); nebulization 10 days, 5 nebulizations for 2 minutes a day.
For series [2], the system named is bronchial ipersecretion induced with S02. The series can be described thus: bronchial hypersecretion induced with SO2 in rats. Format: in vivo. The conditions noted are these: oral, two weeks, 0.5 g/kg/die (esters: equivalent to 0.5 g/kg/die of free acid); 300 ppm SO2 two hours a day, total 90 hours; untreated animals 80%. The source says:
Under the same experimental conditions in tests carried out with Carbocysteine at the same dose (0.5 g/kg/die) the percentage of the non protected animals was 25%.

Series [3] concerns mucins of the fibrillar reticulum. The series can be described thus: glycopeptide analysis of bronchial mucus from orally treated patients. Format: in vivo. The conditions noted are these: comparative test, 70 mg/kg/die. The method, then: The analysis of the glycopeptides of the bronchial mucus obtained by hydrolysis with papaine (24 hours at 37°C, pH 6.5) followed by pronasis (24 hours at 37°C at pH 7.3) and fractionation by electrophoresis on agarose at pH 8.6 and finally chromatografy on DEAE -Sephadex A/25 column has shown an average increasing of about 100% of the sialoglycopeptides (hydrophil- ics) with a reduction higher than 60% of the weakly acid glycopeptides and neutral mucins (hydrophobics) followed by lowering of the viscosity.

`O=C(O)CNC(=O)CCSCC(=O)O` [beta-(S-carboxvmethvl)-propionvl-qlvcine]: the LD50 in “in vivo” was 5500 mg/kg.
As to `N[C@@H](CSCC(=O)O)C(=O)O` [Carbocysteine], in series [1], the “hindering of the intrabronchial desquamation and the reactive mucousa iperplasye” value is ≤ 40%. Besides, the “bronchial obstruction, percentage of treated (non protected) animals” value in series [2] is listed as 25%. Moreover, in “in vivo”, the LD50 is 5180 mg/kg. Also, in series [3], the “average increasing of the sialoglycopeptides” value is given as ≤ 75%; the “decreasing of the glycopeptides and mucins” value is given as ≤ 45%.
As to `CC(SCC(=O)O)C(=O)NCC(=O)O` (stereo not shown) [S-carboxymethyl-propionyl-glycine], in “in vivo”, the LD50 came out at 5420 mg/kg.
